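48-hour exposure; five concentrations; linearly interpolated endpoints. The concentration for 50% growth inhibition is given as GI50.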 The source made the active and inactive calls. Cut-off read from the data, not from the text of the source: active = GI50 up to about 1.1 µM and inactive = higher. Peptide text beside a SMILES is read from it. * marks the point of attachment. Cbz = O=C(OCc1ccccc1)*
How the values were obtained:
Assay in all cases: NCI-60 cell line screen, 48 h
NCI-H460 = test system: NCI-H460
HT-29 = test system: HT-29
A498 = test system: A498
MCF7 = test system: MCF7
UO-31 = test system: UO-31
RXF 393 = test system: RXF 393
Hs-578T = test system: Hs-578T
CCRF-CEM = test system: CCRF-CEM
M14 = test system: M14
PC-3 = test system: PC-3
MDA-MB-231 = test system: MDA-MB-231
SNB-75 = test system: SNB-75
U-251 = test system: U-251
MDA-MB-435 = test system: MDA-MB-435
HCC 2998 = test system: HCC 2998
T47D = test system: T47D
UACC-62 = test system: UACC-62
HOP-92 = test system: HOP-92
NCI-H23 = test system: NCI-H23
NCI-H522 = test system: NCI-H522

Measured: GI50

CC(C)(/N=N/C(C)(C)C1=NCCN1)C1=NCCN1
inactive: NCI-H460 > 100 µM | HT-29 > 100 µM | A498 > 100 µM | MCF7 > 69.5 µM | UO-31 > 74 µM | RXF 393 > 100 µM | Hs-578T > 100 µM | CCRF-CEM > 100 µM | M14 > 85.9 µM | PC-3 > 100 µM | MDA-MB-231 > 100 µM | SNB-75 > 100 µM | U-251 > 100 µM | MDA-MB-435 > 100 µM | HCC 2998 > 100 µM | T47D 76.6 µM | UACC-62 > 100 µM

CCOC(=O)C(C)NC(=O)C(C)NC(=O)C(C)NC(=O)C(C)NC(=O)C(C)NC(=O)C(C)NC(=O)C(C)NC(=O)OCc1ccccc1 (stereo not given) (Cbz-AAAAAAA-OEt; configuration not given here)
inactive: NCI-H460 > 100 µM | HT-29 > 100 µM | A498 40.8 µM | HOP-92 > 100 µM | MCF7 > 100 µM | UO-31 > 100 µM | RXF 393 > 100 µM | NCI-H23 > 100 µM | Hs-578T > 100 µM | M14 > 100 µM | PC-3 > 100 µM | MDA-MB-231 > 100 µM | SNB-75 > 100 µM | U-251 > 100 µM | MDA-MB-435 > 100 µM | HCC 2998 > 100 µM | NCI-H522 > 100 µM | T47D > 100 µM | UACC-62 > 100 µM

COc1cc2c(cc1OC)C(=O)/C(=C/c1ccccc1)CC2
inactive: NCI-H460 26.9 µM | HT-29 17.9 µM | A498 26.1 µM | HOP-92 24.8 µM | MCF7 27.3 µM | UO-31 > 100 µM | RXF 393 > 100 µM | NCI-H23 > 100 µM | Hs-578T > 100 µM | CCRF-CEM 5.83 µM | M14 > 100 µM | PC-3 42.5 µM | MDA-MB-231 > 100 µM | SNB-75 17 µM | U-251 53.2 µM | MDA-MB-435 8.09 µM | HCC 2998 22.6 µM | NCI-H522 52.6 µM | T47D 26.1 µM

CC(=O)OCC1OC(SC2=N/C(=C\c3cc4c(=O)c5ccccc5sc4s3)C(=O)N2c2ccccc2)C(OC(C)=O)C(OC(C)=O)C1OC(C)=O (stereo not given)
inactive: NCI-H460 83.2 µM | HT-29 > 100 µM | A498 > 100 µM | MCF7 78.7 µM | UO-31 > 100 µM | RXF 393 81.5 µM | NCI-H23 > 100 µM | Hs-578T > 100 µM | PC-3 > 100 µM | MDA-MB-231 58.2 µM | SNB-75 65.8 µM | U-251 23.9 µM | MDA-MB-435 > 100 µM | HCC 2998 > 100 µM | NCI-H522 > 100 µM | T47D > 100 µM | UACC-62 > 100 µM

Nc1nc(Cl)c(Cl)c(NCC2(O)CCC2)n1
inactive: NCI-H460 > 100 µM | HT-29 > 100 µM | A498 11.4 µM | HOP-92 29.1 µM | MCF7 74.1 µM | UO-31 31.2 µM | RXF 393 38.4 µM | NCI-H23 38.9 µM | Hs-578T 51.3 µM | CCRF-CEM > 100 µM | PC-3 > 100 µM | MDA-MB-231 74.1 µM | SNB-75 > 100 µM | U-251 92.7 µM | MDA-MB-435 88.3 µM | HCC 2998 88.3 µM | NCI-H522 18.3 µM | T47D 2.76 µM | UACC-62 36.2 µM

NC1CC(=O)c2ccccc21 (stereo not given)
inactive: HT-29 > 100 µM | A498 > 100 µM | HOP-92 > 100 µM | MCF7 > 100 µM | UO-31 > 100 µM | RXF 393 > 100 µM | NCI-H23 > 100 µM | Hs-578T > 100 µM | CCRF-CEM > 100 µM | M14 > 100 µM | PC-3 > 100 µM | MDA-MB-231 > 100 µM | SNB-75 > 100 µM | U-251 > 100 µM | MDA-MB-435 > 100 µM | HCC 2998 > 100 µM | NCI-H522 > 100 µM | T47D > 100 µM | UACC-62 > 100 µM

O=C(Nc1ccc(Br)cc1)c1c(-c2ccccc2)c2ccc(O)cc2oc1=O
inactive: NCI-H460 > 10 µM | HT-29 > 10 µM | A498 > 10 µM | HOP-92 > 10 µM | MCF7 > 10 µM | UO-31 > 10 µM | RXF 393 > 10 µM | NCI-H23 > 10 µM | Hs-578T > 10 µM | CCRF-CEM > 10 µM | M14 > 10 µM | PC-3 > 10 µM | MDA-MB-231 > 10 µM | SNB-75 > 10 µM | U-251 > 10 µM | MDA-MB-435 > 10 µM | HCC 2998 > 10 µM | NCI-H522 > 10 µM | T47D > 10 µM

NS(=O)(=O)c1ccc(NC(=O)Nc2ccccc2F)cc1
inactive: NCI-H460 > 100 µM | HT-29 76 µM | A498 > 100 µM | HOP-92 > 100 µM | MCF7 > 100 µM | UO-31 41.7 µM | RXF 393 > 100 µM | NCI-H23 > 100 µM | Hs-578T > 100 µM | M14 82.4 µM | PC-3 > 100 µM | MDA-MB-231 > 100 µM | SNB-75 > 100 µM | U-251 > 100 µM | MDA-MB-435 > 100 µM | HCC 2998 > 100 µM | NCI-H522 > 100 µM | T47D 52.5 µM | UACC-62 72.3 µM

O=c1oc2cccnc2n1CCN1CCN(c2ccc(Oc3ccccc3)cc2)CC1
inactive: NCI-H460 77.8 µM | HT-29 7.82 µM | A498 40.9 µM | HOP-92 57.3 µM | MCF7 > 100 µM | UO-31 41.1 µM | RXF 393 > 100 µM | NCI-H23 > 100 µM | Hs-578T > 100 µM | CCRF-CEM 7.21 µM | M14 89.7 µM | PC-3 34.4 µM | MDA-MB-231 > 100 µM | SNB-75 11.1 µM | U-251 56.9 µM | MDA-MB-435 63.2 µM | HCC 2998 52.8 µM | NCI-H522 31.6 µM | T47D 10.4 µM

O=C(O)CN1C(=O)c2ccc(NC(=O)C(=O)O)cc2S1(=O)=O
inactive: NCI-H460 > 100 µM | A498 > 100 µM | HOP-92 > 100 µM | MCF7 > 100 µM | UO-31 89.7 µM | RXF 393 > 100 µM | NCI-H23 > 100 µM | Hs-578T > 100 µM | CCRF-CEM > 100 µM | M14 > 100 µM | PC-3 > 100 µM | MDA-MB-231 > 100 µM | U-251 > 100 µM | MDA-MB-435 > 100 µM | HCC 2998 > 100 µM | NCI-H522 > 100 µM | T47D > 100 µM | UACC-62 > 100 µM

COc1ccc2c(c1)[C@@]13CCN4CC5=CCO[C@H]6CC(=O)N2[C@H]1[C@H]6[C@H]5C[C@H]43
inactive: NCI-H460 > 100 µM | HT-29 37.2 µM | A498 69.2 µM | HOP-92 95.7 µM | MCF7 > 100 µM | UO-31 > 100 µM | RXF 393 > 100 µM | NCI-H23 > 100 µM | Hs-578T 33.7 µM | CCRF-CEM 88.5 µM | M14 > 100 µM | PC-3 > 100 µM | MDA-MB-231 > 100 µM | U-251 > 100 µM | MDA-MB-435 > 100 µM | HCC 2998 > 100 µM | NCI-H522 72.3 µM | T47D > 100 µM | UACC-62 > 100 µM

CCCCOP(=O)(OCCCC)C(NS(=O)(=O)c1ccccc1)(C(=O)OCC)C(F)(F)F (stereo not given)
inactive: NCI-H460 37.6 µM | HT-29 40 µM | A498 34.5 µM | HOP-92 23.8 µM | MCF7 16.6 µM | UO-31 > 100 µM | RXF 393 26.7 µM | NCI-H23 33.6 µM | Hs-578T 54.8 µM | CCRF-CEM 27.2 µM | M14 25.9 µM | PC-3 30.1 µM | MDA-MB-231 15.3 µM | SNB-75 27.6 µM | U-251 34.8 µM | MDA-MB-435 29.5 µM | HCC 2998 > 100 µM | T47D > 100 µM | UACC-62 43.9 µM

COc1ccc2nc(-c3ccccc3)c(=O)[nH]c2c1
inactive: NCI-H460 > 100 µM | HT-29 > 100 µM | A498 > 100 µM | HOP-92 > 100 µM | MCF7 > 100 µM | RXF 393 > 100 µM | NCI-H23 > 100 µM | Hs-578T > 100 µM | CCRF-CEM > 100 µM | M14 > 100 µM | PC-3 > 100 µM | MDA-MB-231 > 100 µM | SNB-75 > 100 µM | MDA-MB-435 > 100 µM | HCC 2998 > 100 µM | NCI-H522 > 100 µM | T47D > 100 µM | UACC-62 > 100 µM

C/C=C/[C@H](O[Si](C)(C)C(C)(C)C)[C@@H](O)/C=C/C(=O)OCC
inactive: NCI-H460 15.9 µM | HT-29 21.5 µM | A498 30.3 µM | HOP-92 23.8 µM | MCF7 21.1 µM | UO-31 24 µM | RXF 393 21.8 µM | NCI-H23 38.7 µM | Hs-578T 29.9 µM | CCRF-CEM 14.3 µM | PC-3 33.3 µM | MDA-MB-231 25.8 µM | SNB-75 37.5 µM | U-251 19.4 µM | MDA-MB-435 19.5 µM | HCC 2998 16.4 µM | NCI-H522 16.7 µM | T47D 30.4 µM | UACC-62 18.8 µM

Source: ChEMBL document CHEMBL1201862, “PubChem BioAssay data set” (2004)
